Reference: US8247211B2, “Glycopeptide antibiotics” (American Cyanamid Company, priority 2001, dated 2012)

Legend:
[1] = Anatomic pathology (heart and kidney histopathology) in mice; assay type: in vivo, CD-1 mice; details: 20 mg/kg intravenously daily for 9 days, microscopic histopathology on day 10
Protocol: 20-day-old CD-1 mice were divided into a vehicle control group (5 mice) and a treatment group (5 mice). Samples of glycopeptide antibiotics were administered at 20 mg/kg intravenously daily for 9 days.
Samples of tissues from necropsied mice were formalin-fixed, paraffin-embedded, sectioned, stained with hematoxylin and eosin, and examined microscopically. Histopathologic findings were recorded. These findings were subjectively graded on a scale corresponding to slight, mild, moderate, marked and severe as compared to untreated controls.

[2] = test system: Staphylococcus aureus-SMITH (GC 4543); assay: Acute lethal infection in mice (ED50); assay type: in vivo; details: female CD-1 mice, intraperitoneal challenge, intravenous dose 30 min. after infection, 7 day survival ratios
Outline: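 Groups of five female CD-1 mice per dose got intravenous antibiotic in saline or 5% dextrose half an hour after intraperitoneal infection sufficient to kill controls within 24-48 hr. Seven-day survival data from three experiments were combined to derive ED50.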

Compound	Anatomical Pathology (Day 10), Heart [1]	Anatomical Pathology (Day 10), Kidney [1]	median effective dose (ED50), Staphylococcus aureus-SMITH (GC 4543) [2]
CCCCCCCN1CC(C(O)C2NC(=O)C(C(O)C3CNC(=N)N3)NC(=O)C(Cc3ccc(OC4OC(CO)C(OC5OC(CO)C(O)C(O)C5O)C(O)C4O)cc3)NC(=O)C(C(C)c3ccccc3)NC(=O)CNC(=O)C(CO)NC2=O)N(C2OC(CO)C(O)C(O)C2O)C1=N (stereo not drawn) [Example 71, Cyclo[glycyl-β-methylphenylalanyl-O-(4-O-hexopyranosylhexopyranosyl]tyrosyl-3-(2-iminoimidazolidin-4-yl)seryl-3-[1-heptyl-3-hexopyranosyl-2-iminoimidazolidin-4-yl]serylseryl]]	0	0	>8
CN=C1N(C)CC(CC2NC(=O)C(Cc3ccc(OC4OC(CO)C(OC5OC(CO)C(O)C(O)C5O)C(O)C4O)cc3)NC(=O)C(C(C)c3ccccc3)NC(=O)CNC(=O)C(CO)NC(=O)C(CC3CN(C)C(=NC)N3C3OC(CO)C(O)C(O)C3O)NC2=O)N1C (stereo not drawn) [Example 74]	0	0	>8
CC(c1ccccc1)C1NC(=O)CNC(=O)C(CO)NC(=O)C(C(O)C2CN(Cc3ccc(C(=O)O)cc3)C(=N)N2C2OC(CO)C(O)C(O)C2O)NC(=O)C(C(O)C2CNC(=N)N2)NC(=O)C(Cc2ccc(OC3OC(CO)C(OC4OC(CO)C(O)C(O)C4O)C(O)C3O)cc2)NC1=O (stereo not drawn) [Example 69, Cyclo[glycyl-β-methylphenylalanyl-O-(4-O-hexopyranosylhexopyranosyl)tyrosyl-3-(2-iminoimidazolidin-4-yl)seryl-3-[1-(4-carboxybenzyl)-2-imino-3-hexopyranosylimidazolidin-4-yl]-serylseryl]]	0	0	>8
